Source: ChEMBL document CHEMBL1127866, “Cyclopentanespiro-3H-dihydro-pyrimidinones as Angiotensin II AT1 receptor antagonists” (Bioorg Med Chem Lett, 1994)

How the values were obtained:
[1] = biological target: T1, Type-1 angiotensin II receptor B (Rattus norvegicus, UniProt P29089); test: In vitro inhibition of specific binding of [125I]AII to Angiotensin II receptor, type 1 from rat liver membrane
T1 sequence (P29089 whole entry): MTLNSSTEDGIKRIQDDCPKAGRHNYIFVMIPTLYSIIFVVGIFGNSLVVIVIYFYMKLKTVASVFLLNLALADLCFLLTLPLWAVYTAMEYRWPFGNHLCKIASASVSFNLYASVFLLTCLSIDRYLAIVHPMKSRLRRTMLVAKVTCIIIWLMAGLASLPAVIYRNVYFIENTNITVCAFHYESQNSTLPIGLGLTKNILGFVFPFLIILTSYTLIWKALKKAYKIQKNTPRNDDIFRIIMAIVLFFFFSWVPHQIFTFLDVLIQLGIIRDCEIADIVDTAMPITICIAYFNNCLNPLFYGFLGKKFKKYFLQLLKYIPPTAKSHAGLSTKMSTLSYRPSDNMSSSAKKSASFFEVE

[2] = system: Monkey; test: Tested for induced pressor response to AII (100 ng/kg, iv) in conscious normotensive monkey at a compound dose of 3 mg/kg po for 1 hr; assay type: functional, Cercopithecidae
[3] = system: Monkey; test: Tested for induced pressor response to AII (100 ng/kg, iv) in conscious normotensive monkey at a compound dose of 3 mg/kg po for 2 hr; assay type: functional, Cercopithecidae
[4] = system: Monkey; test: Tested for induced pressor response to AII (100 ng/kg, iv) in conscious normotensive monkey at a compound dose of 3 mg/kg po for 3 hr; assay type: functional, Cercopithecidae
[5] = system: Monkey; test: Tested for induced pressor response to AII (100 ng/kg, iv) in conscious normotensive monkey at a compound dose of 3 mg/kg po for 4 hr; assay type: functional, Cercopithecidae
[6] = system: Monkey; test: Tested for induced pressor response to AII (100 ng/kg, iv) in conscious normotensive monkey at a compound dose of 3 mg/kg po for 0 hr; assay type: functional, Cercopithecidae
[7] = system: Rattus norvegicus; test: Tested for induced pressor response to AII (40 ng/kg, iv) in conscious normotensive rats at a compound dose of 3 mg/kg po for 0 min; assay type: functional
[8] = system: Rattus norvegicus; test: Tested for induced pressor response to AII (40 ng/kg, iv) in conscious normotensive rats at a compound dose of 3 mg/kg po for 120 min; assay type: functional
[9] = system: Rattus norvegicus; test: Tested for induced pressor response to AII (40 ng/kg, iv) in conscious normotensive rats at a compound dose of 3 mg/kg po for 15 min; assay type: functional
[10] = system: Rattus norvegicus; test: Tested for induced pressor response to AII (40 ng/kg, iv) in conscious normotensive rats at a compound dose of 3 mg/kg po for 180 min; assay type: functional
[11] = system: Rattus norvegicus; test: Tested for induced pressor response to AII (40 ng/kg, iv) in conscious normotensive rats at a compound dose of 3 mg/kg po for 30 min; assay type: functional
[12] = system: Rattus norvegicus; test: Tested for induced pressor response to AII (40 ng/kg, iv) in conscious normotensive rats at a compound dose of 3 mg/kg po for 60 min; assay type: functional
[13] = system: Rattus norvegicus; test: Tested for induced pressor response to AII (40 ng/kg, iv) in conscious normotensive rats at a compound dose of 3 mg/kg po for 90 min; assay type: functional
[14] = system: Monkey; test: Tested for induced pressor response to AII (100 ng/kg, iv) in conscious normotensive monkey at a compound dose of 3 mg/kg po for 5 hr; assay type: functional, Cercopithecidae

SMILES	IC50 [1] [nM]	Delta MAP [2] [mmHg]	Delta MAP [3] [mmHg]	Delta MAP [4] [mmHg]	Delta MAP [5] [mmHg]	Delta MAP [6] [mmHg]	Delta MAP [7] [mmHg]	Delta MAP [8] [mmHg]	Delta MAP [9] [mmHg]	Delta MAP [10] [mmHg]	Delta MAP [11] [mmHg]	Delta MAP [12] [mmHg]	Delta MAP [13] [mmHg]	Delta MAP [14] [mmHg]
CCCCC1=NC(=O)C2(CCCC2)CN1Cc1ccc(-c2ccccc2C(=O)O)cc1	1300													
CCCCC1=NCC2(CCCC2)C(=O)N1Cc1ccc(-c2ccccc2C(=O)O)cc1	71													
CCCCC1=NC2(CCCC2)CC(=O)N1Cc1ccc(-c2ccccc2C(=O)O)cc1	53													
CCCCC1=NC2(CCCC2)C(C)(C)C(=O)N1Cc1ccc(-c2ccccc2-c2nnn[nH]2)cc1	2.2													
CCCCC1=NC2(CCCC2)CC(=O)N1Cc1ccc(-c2ccccc2-c2nn[nH]n2)cc1	1	~27	~29	~29	~32	~33	~35	~15	~10	~17	~15	~14	~18	
CCCCC1=NC2(CCCC2)C(=O)N1Cc1ccc(-c2ccccc2-c2nnn[nH]2)cc1 [IRBESARTAN]		~9	~15	~18	~23	~33	~45	~18	~22	~17	~22	~20	~17	~25
